Experimental data as given in patent US10905781B2, “Reporter platform for real time monitoring of drug efficacy” (THE BRIGHAM AND WOMEN'S HOSPITAL, INC., priority 2016, dated 2021).
Ends that are not written are not given here.

System: effector caspases (caspase-3 and caspase-7) compared with initiator caspases (caspase-6 and caspase-9)
Test: Activation of the NIR FRET reporter element by caspases
Assay type: biochemical
Conditions: caspase-3 and caspase-7 compared with caspase-6 and caspase-9
Description: FIG. 15A is a graph showing the time-dependent activation of the reporter element (with the NIR FRET pair) in the presence of caspase-3. Reporter element (50 μM) was incubated in the presence of 50 U caspase-3 enzyme at 37° C., which results in the cleavage of the DEVD sequence and removing the quenching effect of Dylight 766Q on the fluorophore Dylight 755. The increase in fluorescence over time was monitored.

activation of the NIR-based fluorophore by effector versus initiator caspases: selective activation
Substance: reporter element: caspase-3 cleavable sequence GKDEVDAPC-CONH2 to which a NIR FRET-pair (Dylight 755 / Dylight 766Q) is conjugated (GKDEVDAPC-NH2; also: Dylight 755 / Dylight 766Q FRET pair conjugated)
